According to ChEMBL document CHEMBL1201862, “PubChem BioAssay data set” (2004):
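48-hour exposure; five concentrations; linearly interpolated endpoints. The concentration for 50% growth inhibition is given as GI50.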 Activity calls are given as the source filed them. No stated cut-off is given here; in the data, active = GI50 up to about 1.1 µM and inactive = higher.

Experiments:
Test in all cases: inhibition of tumour cell growth, NCI panel, 48 h
[1] = system: SR
[2] = system: COLO 205
[3] = system: K562
[4] = system: SK-MEL-28
[5] = system: NCI-H522
[6] = system: SW-620
[7] = system: Malme-3M
[8] = system: UO-31
[9] = system: CCRF-CEM
[10] = system: DLD-1
[11] = system: HCT-15
[12] = system: ACHN
[13] = system: SF-268
[14] = system: HOP-62
[15] = system: SN12C
[16] = system: KM-20L2
[17] = system: DMS-273
[18] = system: A549
[19] = system: EKVX
[20] = system: UACC-257
[21] = system: SF-539
[22] = system: NCI-H460
[23] = system: XF498
[24] = system: HT-29
[25] = system: HOP-18
[26] = system: LXFL 529
[27] = system: HL-60
[28] = system: 786-0
[29] = system: IGROV-1
[30] = system: KM12
[31] = system: TK-10
[32] = system: SF-295
[33] = system: HCC 2998
[34] = system: M14
[35] = system: NCI-H23
[36] = system: MOLT-4
[37] = system: U-251
[38] = system: M19-MEL
[39] = system: UACC-62
[40] = system: SNB-75
[41] = system: CAKI-1
[42] = system: OVCAR-8
[43] = system: OVCAR-4
[44] = system: HOP-92
[45] = system: SK-MEL-2
[46] = system: RXF 393
[47] = system: SNB-19
[48] = system: NCI-H226
[49] = system: OVCAR-3
[50] = system: RPMI-8226
[51] = system: SK-OV-3
[52] = system: OVCAR-5
[53] = system: DMS-114
[54] = system: SK-MEL-5
[55] = system: LOX IMVI
[56] = system: HCT-116
[57] = system: SNB-78

Measured: GI50

Cc1ccc(S(=O)(=O)ON/N=C2/C3OC3[C@@H]3CCCC[C@H]23)cc1 (some centres not stated)
inactive: [1] > 100 µM | [2] > 100 µM | [3] > 100 µM | [4] > 100 µM | [5] > 100 µM | [6] > 100 µM | [7] > 100 µM | [8] > 100 µM | [9] > 100 µM | [10] > 100 µM | [12] > 100 µM | [13] > 100 µM | [14] > 100 µM | [15] > 100 µM | [16] > 100 µM | [17] > 100 µM | [18] > 100 µM | [19] > 100 µM | [21] > 100 µM | [22] > 100 µM | [23] > 100 µM | [24] > 100 µM | [25] > 100 µM | [26] > 100 µM | [27] > 100 µM | [28] > 100 µM | [29] > 100 µM | [30] > 100 µM | [31] > 100 µM | [32] 1.19 µM | [33] 71.4 µM | [34] > 100 µM | [35] > 100 µM | [36] > 100 µM | [37] > 100 µM | [38] > 100 µM | [39] > 100 µM | [40] > 100 µM | [41] > 100 µM | [43] > 100 µM | [44] > 100 µM | [45] > 100 µM | [46] 39.1 µM | [47] > 100 µM | [48] > 100 µM | [49] > 100 µM | [50] > 100 µM
active: [20] 0.692 µM | [42] 0.507 µM
> 100 µM: [11]

COc1cc2c(cc1OC)C(=O)C(C1=C(SC(=N)N)C(=O)c3cc(OC)c(OC)cc31)C2 (configuration not stated)
inactive: [1] > 100 µM | [2] > 100 µM | [3] > 100 µM | [4] > 100 µM | [5] > 100 µM | [6] > 100 µM | [7] > 100 µM | [8] > 100 µM | [9] > 100 µM | [10] > 100 µM | [12] > 100 µM | [13] > 100 µM | [14] 71.4 µM | [51] > 100 µM | [15] > 100 µM | [16] > 100 µM | [17] > 100 µM | [18] > 100 µM | [19] > 100 µM | [20] > 100 µM | [21] > 100 µM | [22] > 100 µM | [23] > 100 µM | [24] > 100 µM | [26] > 100 µM | [52] > 100 µM | [28] > 100 µM | [29] > 100 µM | [30] > 100 µM | [32] > 100 µM | [33] > 100 µM | [53] > 100 µM | [34] > 100 µM | [35] > 100 µM | [36] > 100 µM | [37] > 100 µM | [38] > 100 µM | [39] > 100 µM | [40] > 100 µM | [41] > 100 µM | [42] > 100 µM | [43] 78.9 µM | [45] > 100 µM | [54] > 100 µM | [47] > 100 µM | [48] > 100 µM | [55] > 100 µM | [56] > 100 µM | [57] > 100 µM | [49] > 100 µM | [50] > 100 µM
> 100 µM: [11]
